Patent US20260184687A1, “DIHYDROINDENE DERIVATIVES AS MALT1 INHIBITORS” (C4X Discovery Limited, priority 2022, published 2026)

Target: T1, FL hMALT1 enzyme (Homo sapiens, UniProt Q9UDY8)
T1 sequence (Q9UDY8 1-824): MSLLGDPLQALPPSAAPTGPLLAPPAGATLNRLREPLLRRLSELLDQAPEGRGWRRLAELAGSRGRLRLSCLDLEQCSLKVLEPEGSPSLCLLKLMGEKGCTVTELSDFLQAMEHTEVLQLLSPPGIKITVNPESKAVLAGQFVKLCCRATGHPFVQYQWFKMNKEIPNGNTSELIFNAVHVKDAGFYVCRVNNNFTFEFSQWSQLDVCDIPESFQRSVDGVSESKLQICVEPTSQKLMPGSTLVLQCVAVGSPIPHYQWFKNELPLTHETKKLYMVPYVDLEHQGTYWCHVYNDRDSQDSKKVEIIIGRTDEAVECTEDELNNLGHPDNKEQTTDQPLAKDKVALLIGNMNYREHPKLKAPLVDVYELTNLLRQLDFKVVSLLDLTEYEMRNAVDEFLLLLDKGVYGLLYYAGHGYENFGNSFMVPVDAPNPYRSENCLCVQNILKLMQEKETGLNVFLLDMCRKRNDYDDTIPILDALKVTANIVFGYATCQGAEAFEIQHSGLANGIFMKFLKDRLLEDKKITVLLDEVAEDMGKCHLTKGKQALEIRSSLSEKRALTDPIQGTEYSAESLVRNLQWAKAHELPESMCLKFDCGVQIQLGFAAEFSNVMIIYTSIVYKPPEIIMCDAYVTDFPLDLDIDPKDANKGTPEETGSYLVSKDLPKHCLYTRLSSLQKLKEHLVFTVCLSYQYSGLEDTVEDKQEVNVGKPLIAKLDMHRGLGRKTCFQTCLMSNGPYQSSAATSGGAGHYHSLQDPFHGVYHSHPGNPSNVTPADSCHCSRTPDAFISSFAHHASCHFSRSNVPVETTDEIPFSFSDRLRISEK
Experiment: biochemical
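Further: Cell-free protease assay: enzyme preincubated with compound 30 min at room temperature, then cleavage of fluorogenic Ac-LVSR-AMC substrate (100 µM) tracked by fluorescence (ex 360/em 460 nm).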

SMILES | IC50 [µM]
CN(C(=O)N1CCS(=O)(=O)CC1)[C@@H](c1ccc(NC2Cc3ccccc3C2(C)C)cn1)C(F)(F)F (single isomer, unassigned) [Example 143] | 0.68
CN(C(=O)C1CCNCC1)[C@@H](c1ccc(NC2Cc3ccccc3C2(C)C)nc1)C(F)(F)F (single isomer, unassigned) [Example 148] | 0.29
CN(C(=O)C1CCS(=O)(=O)CC1)[C@@H](c1ccc(NC2Cc3ccc(F)cc3C2)cn1)C(F)(F)F (single isomer, unassigned) [Example 258] | 4.5
CN(C(=O)C1CN2CCC1CC2)[C@@H](c1ccc(NC2Cc3ccccc3C2(C)C)nc1)C(F)(F)F (single isomer, unassigned) [Example 122] | 1.14
CN(C(=O)C1CCS(=O)(=O)CC1)[C@@H](c1ccc(NC2Cc3cc(F)cc(Cl)c3C2)cn1)C(F)(F)F (single isomer, unassigned) [Example 287] | 0.29
CN(C(=O)C1CN(C(=O)C2CCO2)C1)[C@@H](c1ccc(NC2Cc3ccc(Cl)c(F)c3C2)cn1)C(F)(F)F (single isomer, unassigned) [Example 387] | 0.31
CN1CCC(C(=O)N(C)[C@@H](c2ccc(NC3Cc4ccccc4C3(C)C)nc2)C(F)(F)F)CC1 (single isomer, unassigned) [Example 145] | 0.23
CN(C(=O)C1CCNCC1)[C@@H](c1ccc(NC2Cc3ccccc3C2(C)C)cn1)C(F)(F)F (single isomer, unassigned) [Example 147] | 0.26
CN(C(=O)C1CN(C(=O)CO)C1)[C@@H](c1ccc(NC2Cc3ccc(Cl)c(Cl)c3C2)cn1)C(F)(F)F (single isomer, unassigned) [Example 378] | 1.29
CCc1cccc2c1CC(Nc1ccc([C@H](N(C)C(=O)C3CCS(=O)(=O)CC3)C(F)(F)F)nc1)C2 (single isomer, unassigned) [Example 197] | 2.6
CNC(=O)N1CCC12CC(C(=O)N(C)[C@@H](c1ccc(NC3Cc4ccccc4C3(C)C)cn1)C(F)(F)F)C2 (single isomer, unassigned) [Example 239] | 0.15
CN1CCCC(C(=O)N(C)[C@@H](c2ccc(NC3Cc4ccccc4C3(C)C)cn2)C(F)(F)F)C1 (single isomer, unassigned) [Example 131] | 0.26
CN(C(=O)C1CCS(=O)(=O)CC1)[C@@H](c1ccc(NC2Cc3cc(Cl)cc(Cl)c3C2)cn1)C(F)(F)F (single isomer, unassigned) [Example 283] | 0.91
CN(C(=O)C1CCS(=O)(=O)CC1)[C@@H](c1ccc(NC2Cc3cccc(C#N)c3C2)cn1)C(F)(F)F (single isomer, unassigned) [Example 257] | 2
CN(C(=O)C12CC(NS(C)(=O)=O)(C1)C2)[C@@H](c1ccc(NC2Cc3ccc(Cl)c(Cl)c3C2)cn1)C(F)(F)F (single isomer, unassigned) [Example 322] | 0.31
CN(C(=O)C1CNC(=O)O1)[C@@H](c1ccc(N[C@H]2Cc3ccc(Cl)cc3C2)cn1)C(F)(F)F (stereo partly drawn) [Example 303, N—((S)-1-(5-(((S)-5-Chloro-2,3-dihydro-1H-inden-2-yl)amino)pyridin-2-yl)-2,2,2-trifluoroethyl)-N-methyl-2-oxooxazolidine-5-carboxamide] | 0.19
Cc1c(Cl)ccc2c1CC(Nc1ccc([C@H](N(C)C(=O)C3CCS(=O)(=O)CC3)C(F)(F)F)nc1)C2 (single isomer, unassigned) [Example 373] | 0.49
CN(C(=O)C1(NS(C)(=O)=O)CC1)[C@@H](c1ccc(NC2Cc3ccc(Cl)c(F)c3C2)cn1)C(F)(F)F (stereo partly drawn) [Example 290, N-((1S)-1-(5-((5-Chloro-4-fluoro-2,3-dihydro-1H-inden-2-yl)amino)pyridin-2-yl)-2,2,2-trifluoroethyl)-N-methyl-1-(methylsulfonamido)-cyclopropane-1-carboxamide] | 0.12
CN(C(=O)C1CCN(S(C)(=O)=O)CC1)[C@@H](c1ccc(NC2Cc3ccc(Cl)c(Cl)c3C2)cn1)C(F)(F)F (single isomer, unassigned) [Example 326] | 0.24
COc1cccc2c1CC(Nc1ccc([C@H](N(C)C(=O)C3CCS(=O)(=O)CC3)C(F)(F)F)nc1)C2 (single isomer, unassigned) [Example 177] | 6.6

SMILES | IC50 [µM]
CN(C(=O)C1CCS(=O)(=O)CC1)[C@@H](c1ccc(NC2Cc3cccc(F)c3C2)cn1)C(F)(F)F (single isomer, unassigned) [Example 274] | 0.28
CN(C(=O)C1CCS(=O)(=O)CC1)[C@@H](c1ccc(NC2Cc3cc(F)cc(F)c3C2)cn1)C(F)(F)F (single isomer, unassigned) [Example 269] | 0.15
CN(C(=O)C1CC2(CCN2)C1)[C@@H](c1ccc(NC2Cc3ccccc3C2(C)C)cn1)C(F)(F)F (single isomer, unassigned) [Example 154] | 0.15
CNC(=O)C12C3C4C1C1C2C3C41C(=O)N(C)[C@@H](c1ccc(NC2Cc3ccc(Cl)cc3C2)cn1)C(F)(F)F (stereo partly drawn) [Example 292, N^1-((1S)-1-(5-((5-Chloro-2,3-dihydro-1H-inden-2-yl)amino)pyridin-2-yl)-2,2,2-trifluoroethyl)-N^1,N^4-dimethylcubane-1,4-dicarboxamide] | 0.84
CN(C(=O)C1CN(S(C)(=O)=O)C1)[C@@H](c1ccc(NC2Cc3ccccc3C2(C)C)cn1)C(F)(F)F (single isomer, unassigned) [Example 210] | 0.2
CN(C(=O)C1CCS(=O)(=O)CC1)[C@@H](c1ccc(NC2Cc3cc(F)c(F)c(F)c3C2)cn1)C(F)(F)F (single isomer, unassigned) [Example 296] | 1.4
CN(C(=O)C1CCS(=O)(=O)CC1)[C@@H](c1ccc(NC2Cc3cc(Cl)cc(Cl)c3C2)cn1)C(F)(F)F (single isomer, unassigned) [Example 282] | 0.34
CN(C(=O)C1CCS(=O)(=O)CC1)[C@@H](c1ccc(NC2Cc3c(F)ccc(Cl)c3C2)cn1)C(F)(F)F (single isomer, unassigned) [Example 294] | 2.4
CN(C(=O)C1CC2(CCC(=O)N2)C1)[C@@H](c1ccc(NC2Cc3ccccc3C2(C)C)cn1)C(F)(F)F (single isomer, unassigned) [Example 229] | 0.14
CN(C(=O)C1CCS(=O)(=O)CC1)[C@@H](c1ccc(NC2Cc3ccc(Cl)c(Cl)c3C2)cn1)C(F)(F)F (single isomer, unassigned) [Example 278] | 0.35
CN(C(=O)[C@H]1CCC(=O)NC1)[C@@H](c1ccc(NC2Cc3ccc(Cl)c(F)c3C2)cn1)C(F)(F)F (single isomer, unassigned) [Example 336] | 0.69
CN(C(=O)C1CCS(=O)(=O)CC1)[C@@H](c1ccc(NC2Cc3c(F)ccc(F)c3C2)cn1)C(F)(F)F [Example 273, (S)—N-(1-(5-((4,7-Difluoro-2,3-dihydro-1H-inden-2-yl)amino)pyridin-2-yl)-2,2,2-trifluoroethyl)-N-methyltetrahydro-2H-thiopyran-4-carboxamide 1,1-dioxide] | 0.46
CC(=O)N[C@H]1CC[C@@H](C(=O)N(C)[C@@H](c2ccc(N[C@@H]3Cc4ccccc4C3(C)C)cn2)C(F)(F)F)C1 [Example 204, (1R,3S)-3-Acetamido-N—((S)-1-(5-(((R)-1,1-dimethyl-2,3-dihydro-1H-inden-2-yl)amino)pyridin-2-yl)-2,2,2-trifluoroethyl)-N-methylcyclopentane-1-carboxamide] | 0.22
CN(C(=O)C1CN(C(=O)C2CCOC2)C1)[C@@H](c1ccc(NC2Cc3ccc(Cl)c(Cl)c3C2)cn1)C(F)(F)F (single isomer, unassigned) [Example 354] | 1
CN(C(=O)C1CCS(=O)(=O)CC1)[C@@H](c1ccc(NC2Cc3cccc(Br)c3C2)cn1)C(F)(F)F (stereo partly drawn) [Example 237, N-((1S)-1-(5-((4-Bromo-2,3-dihydro-1H-inden-2-yl)amino)pyridin-2-yl)-2,2,2-trifluoroethyl)-N-methyltetrahydro-2H-thiopyran-4-carboxamide 1,1-dioxide] | 0.11
CN(C(=O)CO)[C@@H](c1ccc(NC2Cc3ccc(Cl)c(F)c3C2)cn1)C(F)(F)F (single isomer, unassigned) [Example 366] | 3.66
CN(C(=O)[C@H]1CCC(=O)NC1)[C@@H](c1ccc(NC2Cc3ccc(Cl)c(C4CC4)c3C2)cn1)C(F)(F)F (single isomer, unassigned) [Example 329] | 0.68
CNC(=O)[C@H]1C[C@H](C(=O)N(C)[C@@H](c2ccc(NC3Cc4ccc(Cl)c(Cl)c4C3)cn2)C(F)(F)F)C1 (stereo partly drawn) [Example 363, (1,3-trans)-N^1-((1S)-1-(5-((4,5-Dichloro-2,3-dihydro-1H-inden-2-yl)amino)pyridin-2-yl)-2,2,2-trifluoroethyl)-N^1,N^3-dimethylcyclobutane-1,3-dicarboxamide] | 0.07
CN(C(=O)C1CCS(=O)(=O)CC1)[C@@H](c1ccc(NC2Cc3ccc(Br)cc3C2)cn1)C(F)(F)F (single isomer, unassigned) [Example 285] | 0.69
CN(C(=O)C1CC2(CCC(=O)N2)C1)[C@@H](c1ccc(NC2Cc3ccc(Cl)c(Cl)c3C2)cn1)C(F)(F)F (single isomer, unassigned) [Example 342] | 1.32
